In patent US11028090B2 (Dong Wha Pharm. Co., Ltd., priority 2017, dated 2021):
Read-outs that look alike come from different tables or passages of the source.

What was measured:
[1] = target: BRD4 (BD1+BD2) bromodomain (Homo sapiens (Human), UniProt O60885); experiment: BRD4 binding inhibition (AlphaScreen, GST-BRD4 vs tetraacetylated histone H4 peptide)
Outline: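 GST-BRD4 (BD1+BD2) and biotinylated tetraacetyl-histone H4 peptide, each at 100 nM in HEPES pH 7.4 buffer with BSA and DTT, were combined with compound. Glutathione acceptor and streptavidin donor beads were added, then incubated 30 min at room temperature in the dark. Read-out was AlphaScreen signal.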

[2] = tested on: thymus cancer cells (Ty-82 cells); experiment: Cytotoxicity to thymus cancer cells (Ty-82 cells), WST-1; settings: Homo sapiens, TY82, 72 h
Procedure: The following experiment was performed to evaluate the cytotoxicity of [1,2,4]triazolo[4,3-a]quinoxaline derivative according to the present invention to thymus cancer cells (Ty-82 cells).
First, thymus cancer cells (Ty-82 cells) were distributed in a 96 well plate at the density of 2.5×10^4 cells/well. 24 hours later, the plated cells were treated with the compounds of the present invention dissolved in DMSO at the different concentrations ranging from 0.01 μM to 10 μM. 72 hours later, the activities of the compounds were determined using WST-1 reagent.

[3] = tested on: acute myelogenous leukemia cells (MV-4-11 cells); experiment: Cytotoxicity to acute myelogenous leukemia cells (MV-4-11 cells), CCK-8; settings: Homo sapiens, MV4-11, 72 h
[4] = GST-BRD4 (BD1+BD2) / biotinylated acetyl-histone H4 (Lys5,8,12,16) peptide, read-out: IC50, BRD4 binding inhibition
[5] = GST-BRD4 (BD1+BD2) vs biotinylated acetyl-histone H4 peptide, AlphaScreen, read-out: BRD4 IC50
[6] = read-out: IC50, cytotoxicity against thymus cancer cells
[7] = read-out: Ty-82 Cytotoxicity IC50
[8] = read-out: IC50, cytotoxicity against acute myelogenous leukemia cells
[9] = read-out: MV-4-11 Cytotoxicity IC50

| SMILES | IC50 [1, 4] [nM] | IC50 [1, 5] [nM] | IC50 [2, 6] [nM] | IC50 [2, 7] [nM] | IC50 [3, 8] [nM] | IC50 [3, 9] [nM] | IC50 ([1]; IC50, BRD4 binding inhibition, GST-BRD4 (BD1+BD2) / biotinylated acetyl-histone H4 (Lys5,8,12,16) peptide) [nM] |
| --- | --- | --- | --- | --- | --- | --- | --- |
| COc1ccc2c(c1)nc(NCCCCNC(=O)CC(C)C)c1nnc(C)n12 [Example 285, N-[4-(7-methoxy-1-methyl-[1,2,4]triazolo[4,3-a]quinoxaline-4-ylamino)-butyl]-3-methyl-butyramide] | ≤ 50 | 17 | ≤ 500 | 91 | ≤ 200 | 10 | – |
| COc1cc2nc(NCCCCNC(=O)Oc3ccccc3)c3nnc(C)n3c2cc1OC [Example 67, [4-(7,8-dimethoxy-1-methyl-[1,2,4]triazolo[4,3-a]quinoxaline-4-ylamino)-butyl]-carbamic acid phenylester] | – | 19 | ≤ 500 | 170 | ≤ 200 | 140 | ≤ 50 |
| Cc1nnc2c(NCCCCNC(=O)c3ccccc3)nc3cc4c(cc3n12)OCCO4 [Example 186, N-[4-(1-methyl-8,9-dihydro-7,10-dioxa-2,3,5,11b-tetraaza-cyclopenta[a]anthracene-4-ylamino)-butyl]-benzamide] | ≤ 50 | 22 | ≤ 500 | 340 | – | 680 | – |
| Cc1nnc2c(NCCCCNC(=O)OC3CCCC3)nc3cc4c(cc3n12)OCCO4 [Example 190, [4-(1-methyl-8,9-dihydro-7,10-dioxa-2,3,5,11b-tetraaza-cyclopenta[a]anthracene-4-ylamino)-butyl]-carbamic acid cyclopentylester] | ≤ 50 | 28 | – | 650 | ≤ 200 | 90 | – |
| COc1ccc2c(c1)nc(NCCCCNC(=O)C(C)(C)C)c1nnc(C)n12 [Example 277, N-[4-(7-methoxy-1-methyl-[1,2,4]triazolo[4,3-a]quinoxaline-4-ylamino)-butyl]-2,2-dimethyl-propionamide] | – | – | – | 930 | – | 550 | – |
| COCCOc1cc2nc(NCCCCNC(=O)OCC(C)C)c3nnc(C)n3c2cc1OCCOC [Example 168, {4-[7,8-bis-(2-methoxy-ethoxy)-1-methyl-[1,2,4]triazolo[4,3-a]quinoxaline-4-ylamino]-butyl}-carbamic acid isobutylester] | ≤ 50 | 16 | – | 600 | ≤ 200 | 90 | – |
| COc1ccc2c(c1)nc(NCCCCNC(=O)OCC(C)C)c1nnc(C)n12 [Example 279, [4-(7-methoxy-1-methyl-[1,2,4]triazolo[4,3-a]quinoxaline-4-ylamino)-butyl]-carbamic acid isobutylester] | ≤ 50 | 18 | ≤ 500 | 120 | ≤ 200 | 140 | – |
| Cc1nnc2c(NCCCCOC(=O)CC(C)(C)C)nc3ccccc3n12 [Example 633] | ≤ 50 | 24 | – | 900 | – | 750 | – |
| Cc1nnc2c(NCCCCNC(=O)c3ccccc3)nc3ccccc3n12 [Example 11, N-[4-(1-methyl-[1,2,4]triazolo[4,3-a]quinoxaline-4-ylamino)-butyl]-benzamide] | – | – | – | 950 | – | 710 | – |
| COc1cc2nc(NCCCCNC(=O)C(C)(C)C)c3nnc(C)n3c2cc1C [Example 466] | – | – | ≤ 500 | 340 | ≤ 200 | 83 | – |
| Cc1nnc2c(NCCCCNC(=O)OC(C)(C)C)nc3cc(C(=O)Nc4ccccc4)ccc3n12 [Example 212, [4-(1-methyl-7-phenylcarbamoyl-[1,2,4]triazolo[4,3-a]quinoxaline-4-ylamino)-butyl]-carbamic acid-tert-butylester] | ≤ 50 | 35 | – | 840 | – | – | – |
| COC(=O)c1ccc2c(c1)nc(NCCCCNC(=O)OC(C)(C)C)c1nnc(C)n12 [Example 197, 4-(4-tert-butoxycarbamoylamino-butylamino)-1-methyl-[1,2,4]triazolo[4,3-a]quinoxaline-7-carboxylic acid methylester] | ≤ 50 | 28 | – | 650 | – | – | – |
| Cc1nnc2c(NCCCCNC(=O)C(C)(C)C)nc3ccccc3n12 [Example 3, 2,2-dimethyl-N-[4-(1-methyl-[1,2,4]triazolo[4,3-a]quinoxaline-4-ylamino)-butyl]-propionamide] | ≤ 50 | 28 | – | 920 | – | – | – |
| Cc1nnc2c(NCCCCNC(=O)OC(C)(C)C)nc3cc(NC(=O)C(C)C)ccc3n12 [Example 246, [4-(7-isobutyramido-1-methyl-[1,2,4]triazolo[4,3-a]quinoxaline-4-ylamino)-butyl]-carbamic acid-tert-butylester] | ≤ 50 | 23 | ≤ 500 | 490 | – | – | – |
| CC(=O)Nc1ccc2c(c1)nc(NCCCCNC(=O)C(C)(C)C)c1nnc(C)n12 [Example 250, N-[4-(7-acetylamino-methyl-[1,2,4]triazolo[4,3-a]quinoxaline-4-ylamino)-butyl]-2,2-dimethyl-propionamide] | ≤ 50 | – | ≤ 500 | 300 | – | – | – |
| Cc1nnc2c(NCCCCNC(=O)OC(C)(C)C)nc3cc(C(=O)NC(C)C)ccc3n12 [Example 202, [4-(7-isopropylcarbamoyl-1-methyl-[1,2,4]triazolo[4,3-a]quinoxaline-4-ylamino)-butyl]-carbamic acid-tert-butylester] | ≤ 50 | 44 | – | 640 | – | – | – |

Now from value to molecule, other results behind:

| IC50 [1, 4] [nM] | IC50 [1, 5] [nM] | SMILES | IC50 [2, 6] [nM] | IC50 [2, 7] [nM] | IC50 [3, 8] [nM] | IC50 [3, 9] [nM] | IC50 ([1]; IC50, BRD4 binding inhibition, GST-BRD4 (BD1+BD2) / biotinylated acetyl-histone H4 (Lys5,8,12,16) peptide) [nM] |
| --- | --- | --- | --- | --- | --- | --- | --- |
| ≤ 50 | 22 | CCC(C)C(=O)NCCCCNc1nc2cc(OC)c(OC)cc2n2c(C)nnc12 (stereo not drawn) [Example 77, N-[4-(7,8-dimethoxy-1-methyl-[1,2,4]triazolo[4,3-a]quinoxaline-4-ylamino)-butyl]-2-methyl-butyramide] | – | 920 | ≤ 200 | 150 | – |
| ≤ 10 | 7 | COc1cc2nc(NCCCCNC(=O)OCC(C)C)c3nnc(C)n3c2cc1OC [Example 62, [4-(7,8-dimethoxy-1-methyl-[1,2,4]triazolo[4,3-a]quinoxaline-4-ylamino)-butyl]-carbamic acid isobutylester] | ≤ 500 | 290 | ≤ 200 | 120 | – |
| ≤ 50 | 28 | COc1cc2nc(NCCCCNC(=O)CC(C)(C)C)c3nnc(C)n3c2cc1OC [Example 75, N-[4-(7,8-dimethoxy-1-methyl-[1,2,4]triazolo[4,3-a]quinoxaline-4-ylamino)-butyl]-3,3-dimethyl-butyramide] | – | 790 | – | 340 | – |
| ≤ 50 | 34 | Cc1nnc2c(NCCCCNC(=O)NC(C)C)nc3cc4c(cc3n12)OCCO4 [Example 192, 1-isopropyl-3-[4-(1-methyl-8,9-dihydro-7,10-dioxa-2,3,5,11b-tetraaza-cyclopenta[a]anthracene-4-ylamino)-butyl]-urea] | – | 680 | – | 420 | – |
| ≤ 50 | 28 | COc1cc2nc(NCCCCNC(=O)CC(C)C)c3nnc(C)n3c2cc1OC [Example 74, N-[4-(7,8-dimethoxy-1-methyl-[1,2,4]triazolo[4,3-a]quinoxaline-4-ylamino)-butyl]-3-methyl-butyramide] | ≤ 500 | 170 | ≤ 200 | 110 | – |
| – | 55 | COc1cc2nc(NCCCCNC(=O)CC(C)C)c3nnc(C)n3c2cc1C [Example 469, N-[4-(7-methoxy-1,8-dimethyl-[1,2,4]triazolo[4,3-a]quinoxaline-4-ylamino)-butyl]-3-methyl-butyramide] | ≤ 500 | 94 | ≤ 200 | 10 | – |
| ≤ 50 | 20 | COCCOc1cc2nc(NCCCCNC(=O)CC(C)C)c3nnc(C)n3c2cc1OCCOC [Example 166, N-{4-[7,8-bis-(2-methoxy-ethoxy)-1-methyl-[1,2,4]triazolo[4,3-a]quinoxaline-4-ylamino]-butyl}-3-methyl-butyramide] | – | 580 | ≤ 200 | 70 | – |
| ≤ 50 | 39 | COc1cc2nc(NCCCCNC(=O)NC3CCCCC3)c3nnc(C)n3c2cc1OC [Example 93, 1-cyclohexyl-3-[4-(7,8-dimethoxy-1-methyl-[1,2,4]triazolo[4,3-a]quinoxaline-4-ylamino)-butyl]-urea] | – | 560 | – | 340 | – |
| – | 63 | COc1cc2nc(NCCCCNC(=O)NC(C)C)c3nnc(C)n3c2cc1OC [Example 90] | ≤ 500 | 400 | – | 300 | – |
| ≤ 50 | 34 | COc1cc2nc(NCCCCNC(=O)C(C)(C)C)c3nnc(C)n3c2cc1OC [Example 59, N-[4-(7,8-dimethoxy-1-methyl-[1,2,4]triazolo[4,3-a]quinoxaline-4-ylamino)-butyl]-2,2-dimethyl-propionamide] | ≤ 500 | 420 | – | 310 | – |
| – | 51 | COc1cc2nc(NCCCCNC(=O)c3ccc([N+](=O)[O-])cc3)c3nnc(C)n3c2cc1OC [Example 101, N-[4-(7,8-dimethoxy-1-methyl-[1,2,4]triazolo[4,3-a]quinoxaline-4-ylamino)-butyl]-4-nitro-benzamide] | – | 880 | – | – | – |
